Results taken from patent US20120184536A1, “COMPOSITIONS COMPRISING SPECIFIC UGT INHIBITORS AND METHODS OF USE THEREOF” (The Board of Trustees of the University of Arkansas, priority 2009, published 2012).
Like-named read-outs stand apart in the source and are kept apart here.

How the values were obtained:
UGT2B7 [1] = target: T1, UGT2B7 (Homo sapiens, UniProt P16662); experiment: Ki assays / kinetics and inhibition type, UGT2B7 (Example 1); conditions: UGT2B7
T1 sequence (P16662 24-529): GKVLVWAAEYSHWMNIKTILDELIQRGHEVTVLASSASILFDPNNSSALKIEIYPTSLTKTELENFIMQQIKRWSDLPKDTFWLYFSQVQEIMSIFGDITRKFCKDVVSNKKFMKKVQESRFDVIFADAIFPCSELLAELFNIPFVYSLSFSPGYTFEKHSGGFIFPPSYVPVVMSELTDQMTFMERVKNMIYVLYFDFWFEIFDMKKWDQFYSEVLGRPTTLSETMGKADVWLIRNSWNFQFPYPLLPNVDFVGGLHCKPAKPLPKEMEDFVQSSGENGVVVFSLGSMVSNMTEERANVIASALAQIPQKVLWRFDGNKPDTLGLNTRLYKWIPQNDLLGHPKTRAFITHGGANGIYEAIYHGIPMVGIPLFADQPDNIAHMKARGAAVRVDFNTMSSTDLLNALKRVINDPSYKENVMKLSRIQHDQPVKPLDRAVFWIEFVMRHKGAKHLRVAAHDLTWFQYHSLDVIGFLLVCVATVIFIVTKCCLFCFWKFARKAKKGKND
Description: (§1) Recombinant UGT Isoform Incubations—Recombinant human UGT2B7 was produced in HEK239 cells as previously described (6). UGT1A10 was produced as a His-tagged protein in baculovirus-infected Sf9 insect cells as previously described (7, 8). […] For inhibition assays, recombinant UGT membrane protein was incubated in reaction buffer with substrate, inhibitor, and co-substrate as previously described (6, 9).
(§2) Ki assays—UGT2B7 or 1A10 were incubated with a range of at least four different concentrations of inhibitor using varying concentrations of substrate (Ki(substrate)) with a fixed saturating concentration of cosubstrate or with varying concentrations of co-substrate (Ki(UDP-GlcUA)) and a fixed saturating concentration of substrate (FIG. 4).
(§3) The results of these experiments were analyzed and apparent kinetic and inhibition parameters were determined using Prism 4 software (GraphPad, San Diego, Calif.) and DynaFit (BioKin, Watertown, Mass.). TLC and HPLC Analysis—For inhibition assays using all substrates other than 7-OH-warfarin, aliquots (60 μl) of each incubation were analyzed using thin layer chromatography (TLC) as previously described (3). For inhibition assays using 7-OH-warfarin as a substrate, samples were analyzed using HPLC as described previously (10). Primary standards for the 7-OH-warfarin glucuronide were not available; therefore, product concentrations were estimated using the external standard response for the 7-OH-warfarin substrate.

UGT1A10 [2] = target: T2, UGT1A10 (Homo sapiens, UniProt Q9HAW8); experiment: Ki assays / kinetics and inhibition type, UGT1A10 (Example 1); conditions: for Inhibition Type (UDP-GlcUA): UDP-GlcUA varied
T2 sequence (Q9HAW8 26-530): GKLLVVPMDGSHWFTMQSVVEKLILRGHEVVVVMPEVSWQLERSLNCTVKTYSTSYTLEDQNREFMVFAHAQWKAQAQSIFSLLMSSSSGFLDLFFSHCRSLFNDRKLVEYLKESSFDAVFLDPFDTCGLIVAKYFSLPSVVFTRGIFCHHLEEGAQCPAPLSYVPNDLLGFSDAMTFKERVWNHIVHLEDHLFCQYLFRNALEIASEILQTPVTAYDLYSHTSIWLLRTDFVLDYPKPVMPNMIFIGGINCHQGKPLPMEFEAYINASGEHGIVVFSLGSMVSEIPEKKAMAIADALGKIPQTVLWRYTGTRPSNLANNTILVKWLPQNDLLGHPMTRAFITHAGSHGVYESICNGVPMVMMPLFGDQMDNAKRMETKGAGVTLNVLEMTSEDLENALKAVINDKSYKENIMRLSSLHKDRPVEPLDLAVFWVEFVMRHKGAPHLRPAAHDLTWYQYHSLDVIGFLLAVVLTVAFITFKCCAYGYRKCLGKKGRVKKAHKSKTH
Description: as §1, §2, §3

UGT1A10 [3] = target: T2, UGT1A10; experiment: Ki assays / kinetics and inhibition type, UGT1A10 (Example 2); conditions: UGT1A10, Example 2; for Inhibition Type (UDP-GlcUA): UDP-GlcUA varied
Description: Recombinant UGT Isoform Incubations—Recombinant human UGT1A10 and it mutants were produced in baculovirus-infected insect cells as previously described (6, 7). Synthesis of inhibitors was described previously (2). For inhibition assays, UGT recombinant membrane protein (5 μg) was incubated in reaction buffer ([…] Tris-HCl (pH 7.4)/5 mM MgCl2/5 mM saccharolactone) and 2% DMSO with substrate, inhibitor and co-substrate, UDP-GlcUA, in a total volume of 30 μl. Substrates were added in DMSO, and controls were run with each assay. No additional detergents or other activators were used in the incubations. Reactions were started by the addition of co-substrate and incubated at 37° C. (90 min for 8-hydroxywarfarin; 30 min for 4-MU; 30 min for E2). […] Reactions were stopped by addition of 40 μl of ethanol, and all incubations were performed in duplicate.
TLC Analysis—For inhibition assays using 4-MU, E2, and 8-OH warfarin as substrates, aliquots (60 μl) of each sample were analyzed using thin layer chromatography (TLC) as described previously (3).
Each sample was centrifuged at 14,000 rpm for 8 min to spin down the protein, and 60 μl of the supernatant was analyzed by HPLC as described previously (8).

UGT1A10 [4] = target: T2, UGT1A10; experiment: IC50 assays, inhibition of UGT1A10 glucuronidation (Example 1); type: biochemical; design: His; made in house; host or cells: baculovirus-infected Sf9 insect cells
From the text: Synthesis of inhibitors was described previously (2).

UGT1A10 [5] = target: T2, UGT1A10; type: biochemical; design: His; made in house; host or cells: baculovirus-infected Sf9 insect cells
UGT2B7 [6] = target: T1, UGT2B7; experiment: IC50 assays, inhibition of UGT2B7 glucuronidation (Example 1)
Description: Recombinant UGT Isoform Incubations—Recombinant human UGT2B7 was produced in HEK239 cells as previously described (6). […] For inhibition assays, recombinant UGT membrane protein was incubated in reaction buffer with substrate, inhibitor, and co-substrate as previously described (6, 9).
IC50 assays—UGT2B7 or 1A10 were incubated with fixed concentrations of each substrate and co-substrate and increasing concentrations of inhibitor.
as §3

Inhibition Type (UDP-GlcUA) (UGT2B7 [1]; UDP-GlcUA varied, androsterone): Mixed | Inhibition Type (UDP-GlcUA) (UGT2B7 [1]; UDP-GlcUA varied, linoleic acid): Competitive | Inhibition Type (UDP-GlcUA) (UGT2B7 [1]; UDP-GlcUA varied, p-nitrophenol): Mixed | Inhibition Type (Substrate) (UGT2B7 [1]; androsterone varied): Mixed | Inhibition Type (Substrate) (UGT2B7 [1]; linoleic acid varied): Competitive | Inhibition Type (Substrate) (UGT2B7 [1]; p-nitrophenol varied): Competitive | Ki (UGT2B7 [1]; read-out: Kiapp (Substrate), linoleic acid varied): 4.2 µM | Ki (UGT2B7 [1]; read-out: Kiapp (Substrate), p-nitrophenol varied): 7.6 µM | Ki (UGT2B7 [1]; read-out: Kiapp (UDP-GlcUA), UDP-GlcUA varied, linoleic acid): 2.5 µM | Ki (UGT2B7 [1]; read-out: Kiapp (UDP-GlcUA), UDP-GlcUA varied, p-nitrophenol): 2.1 µM | Ki (UGT2B7 [1]; read-out: Ki′app (UDP-GlcUA), UDP-GlcUA varied, p-nitrophenol): 85 µM | Inhibition Type (Substrate) (UGT1A10 [2]; 4-MU varied): noncompetitive and Non- | Inhibition Type (Substrate) (UGT1A10 [2]; 7-OH warfarin varied): Competitive | Inhibition Type (Substrate) (UGT1A10 [2]; 8-OH warfarin varied): Mixed | Inhibition Type (Substrate) (UGT1A10 [2]; E2 varied): Mixed | Inhibition Type (UDP-GlcUA) (UGT1A10 [2]; 4-MU): Competitive | Inhibition Type (UDP-GlcUA) (UGT1A10 [2]; 7-OH warfarin): Competitive | Inhibition Type (UDP-GlcUA) (UGT1A10 [2]; 8-OH warfarin): Competitive | Inhibition Type (UDP-GlcUA) (UGT1A10 [2]; E2): Mixed | Ki (UGT1A10 [2]; read-out: Kiapp (Substrate), 4-MU varied): 96 µM | Ki (UGT1A10 [2]; read-out: Kiapp (Substrate), 7-OH warfarin varied): 8.5 µM | Ki (UGT1A10 [2]; read-out: Kiapp (Substrate), 8-OH warfarin varied): 27 µM | Ki (UGT1A10 [2]; read-out: Kiapp (Substrate), E2 varied): 200 µM | Ki (UGT1A10 [2]; read-out: Kiapp (UDP-GlcUA), UDP-GlcUA varied, 4-MU): 5.7 µM | Ki (UGT1A10 [2]; read-out: Kiapp (UDP-GlcUA), UDP-GlcUA varied, 7-OH warfarin): 4.1 µM | Ki (UGT1A10 [2]; read-out: Kiapp (UDP-GlcUA), UDP-GlcUA varied, 8-OH warfarin): 26 µM | Ki (UGT1A10 [2]; read-out: Kiapp (UDP-GlcUA), UDP-GlcUA varied, E2): 6.9 µM | Ki (UGT1A10 [2]; read-out: Ki′app (Substrate), 8-OH warfarin varied): 136 µM | Ki (UGT1A10 [2]; read-out: Ki′app (Substrate), E2 varied): 43 µM | Ki (UGT1A10 [2]; read-out: Ki′app (UDP-GlcUA), UDP-GlcUA varied, E2): 23 µM | Inhibition Type (Substrate) (UGT1A10 [3]; 4-MU varied): Competitive | Inhibition Type (Substrate) (UGT1A10 [3]; 7-OH warfarin varied): Competitive | Inhibition Type (Substrate) (UGT1A10 [3]; 8-OH warfarin varied): Competitive | Inhibition Type (UDP-GlcUA) (UGT1A10 [3]; 4-MU): Competitive | Inhibition Type (UDP-GlcUA) (UGT1A10 [3]; 7-OH warfarin 3 mM): Mixed | Inhibition Type (UDP-GlcUA) (UGT1A10 [3]; 8-OH warfarin): Competitive | Inhibition Type (UDP-GlcUA) (UGT1A10 [3]; E2 1 mM): Mixed | IC50 (UGT1A10 [4]; 4-MU, read-out: IC50 (Substrate)): 8 ± 1 µM | IC50 (UGT1A10 [4]; 7-OH warfarin, read-out: IC50 (Substrate)): 11 ± 2 µM | IC50 (UGT1A10 [4]; 8-OH warfarin, read-out: IC50 (Substrate)): 35 ± 4 µM | IC50 (UGT1A10 [4]; E2, estimation, some activation at low concentrations, read-out: IC50 (Substrate)): ~200 µM | IC50 (UGT1A10 [4]; co-substrate ~2 x Km, 4-MU in excess, read-out: IC50 (UDP-GlcUA)): 15 ± 2 µM | IC50 (UGT1A10 [4]; co-substrate ~2 x Km, 7-OH warfarin in excess, read-out: IC50 (UDP-GlcUA)): 4.9 ± 0.2 µM | IC50 (UGT1A10 [4]; co-substrate ~2 x Km, 8-OH warfarin in excess, read-out: IC50 (UDP-GlcUA)): 14 ± 1 µM | IC50 (UGT1A10 [4]; co-substrate ~2 x Km, E2 in excess, read-out: IC50 (UDP-GlcUA)): 39 ± 11 µM | extent of inhibition of UGT1A10 activity toward 7-OH warfarin (UGT1A10 [5]): did not fully inhibition | IC50 (UGT2B7 [6]; read-out: IC50 (Substrate), linoleic acid ~2 x Km, co-substrate in >5 fold excess): 14 µM | IC50 (UGT2B7 [6]; read-out: IC50 (Substrate), p-nitrophenol (pNP) ~2 x Km, co-substrate in >5 fold excess): 75 ± 10 µM
SMILES: CCCCCCCCCC(=O)NC(COC(=O)NS(=O)(=O)OCC1OC(n2ccc(=O)[nH]c2=O)C(O)C1O)Cc1ccccc1 (stereo not drawn) [PP55B]
